The structures appear in SMILES notation. Some results are limits rather than exact numbers.

Data on one molecule can be found in patent US11771707B2, “Pharmaceutical compositions and uses thereof” (SpineThera, priority 2016, dated 2023).

Data set [1] is described as follows: in vitro release of dexamethasone acetate from microspheres. The data set is classed as physicochemical. As to the method:
The microspheres, and compositions comprising those microspheres, of the various embodiments described herein are analyzed using USP methods known in the art to determine, among other things, the pH of the compositions, the in vitro release of API, and the impurities present. […] Without wishing to be bound by theory, it can be reasonably expected that dexamethasone acetate will release continuously over about 84 days in vitro, with about 20% of the drug released in 3 days, 50% in 25 days, and 90% in 60 days. It will be understood that the release profile may be adjusted by one or more of the following, including combinations: increasing or decreasing drug to polymer ratio; increasing or decreasing polymer molecular weight; increasing or decreasing particle size; increasing or decreasing polymer degradation time (by decreasing or increasing glycolic acid content); or increasing or decreasing hydrophilicity of microsphere surface.

The conditions of data set [2]: brain; cited from earlier work.
Data set [3] in a line: in vitro release in 1% C-TAB buffer at pH 3.5. The data set is classed as physicochemical. From the text: Without wishing to be bound by theory, pharmaceutical compositions of the type described herein are not expected to elicit any significant or appreciable degree of inflammatory response or cause necrosis. Histological examination may reveal the microspheres to be localized and agglomerated within the epidural space at the site of injection with no evidence of the presence of the injection vehicle after about 2 days. Contents of the treated epidural pocket can be recovered by dissection. It can be reasonably expected that dexamethasone acetate will be released continuously over approximately 45 days under in vitro conditions of 1% C-TAB buffer at pH 3.5, with <20% of the drug released in 1 day, 30-60% in 7 days, 60-85% in 28 days and not less than 85% in 45 days, with complete microsphere polymer degradation in about 16 weeks/112 days.

Turning to `CC(=O)OCC(=O)[C@@]1(O)[C@H](C)C[C@H]2[C@@H]3CCC4=CC(=O)C=C[C@]4(C)[C@@]3(F)[C@@H](O)C[C@@]21C` [dexamethasone acetate, 9 alpha-fluoro-11-beta, 17-alpha, 21-trihydroxy-16 alpha-methylpregna-1,4-diene-3,20-dione 21-acetate], the “period of continuous release” value in data set [1] is “about 84 days”; in data set [3] (1% C-TAB buffer pH 3.5), “approximately 45 days”. Further, the drug released entry in data set [1] (in 3 days) is “about 20%”; in data set [1] (in 25 days) it was around 50%; in data set [1] (in 60 days), around 90%; in data set [3] (1% C-TAB buffer pH 3.5, in 1 day), below 20%; in data set [3] (1% C-TAB buffer pH 3.5, in 7 days) it was 30-60%; in data set [3] (1% C-TAB buffer pH 3.5, in 28 days), 60-85%. The drug released result in data set [3] (1% C-TAB buffer pH 3.5, in 45 days) is on record as “not less than 85%”. For the same molecule, in data set [2], the “anti-inflammatory effect and tissue water content” value was “anti-inflammatory effect in the brain without reducing tissue water content”.
